One assay relates to DLD-1. Description: MTT in vitro antiproliferative assay, DLD-1. It counts as cell-based, human. The settings on record: DLD-1, MTT; for TGI / GI50: 48 h drug exposure; for IC50 / GI50: Homo sapiens; for IC50: 48 h, 50% cell death. An excerpt:
(§1) The in vitro antiproliferative activities of the novel triazolo[3,4-b]thiadiazole derivatives were estimated in ten well-established human cancer cell lines including three ovarian (SKOV-3, UWB 1.289, and UWB 1.289+BRCA1), five colorectal adenocarcinoma (DLD-1, HT-29, LS174T, LoVo, and SW403), and two prostate cancer cell lines (PC-3 and DU-145). All cancer cell lines were obtained from the American Type Culture Collection (ATCC) and cultivated in different culture media according to the instructions. The required growth mediums were supplemented with 10% fetal bovine serum and 1% streptomycin/penicillin. All cancer cell lines were cultured as monolayers and maintained at 37 °C, 5% CO2 in humidified air.
(§2) Stock solutions of all tested compounds were prepared by dissolving the required amount of substances in the DMSO solvent to reach the desired concentration of 15 mM.
(§3) To evaluate the in vitro antiproliferative activity of the triazolo[3,4-b]thiadiazole derivatives, 3-(4,5-dimethylthiazol-2-yl)-2,5-diphenyltetrazolium bromide (MTT) assay was assessed. According to the protocol, cells were firstly seeded into a 96-well plate at a density of 8 × 10^3 cells and grown for 24 h at 37 °C, 5% CO2 in humidified air. Subsequently, cells were treated with the tested compounds in a specific range of drug concentrations (1–100 μΜ). Following 48 h of drug exposure, the culture media were discarded and replaced with 100 μL of fresh medium. Afterwards, 50 μL of dissolved MTT in phosphate-buffered saline (PBS) solution (5 mg/mL) were added in each well and cells were incubated for 3 h at 37 °C, 5% CO2 in humidified air. Incubation time was followed by MTT discard and the addition of 100 μL of DMSO solvent so that the formazan crystals could be dissolved. The absorbance of the converted dye was immediately measured at a wavelength of 540 nm on an ELISA reader (VersaMax Microplate Reader, Orleans, CA, USA).
(§4) The in vitro anticancer effect of a tested compound on cell viability was determined by three dose–response parameters termed GI50, TGI, and IC50. More specifically, the GI50 value indicates the required concentration of the compound that impels 50% cell growth inhibition, the TGI value corresponds to the concentration that induces 100% cell growth inhibition, and the IC50 value is the concentration that causes 50% cell death. The two parameters GI50 and TGI represent the cytostatic activity, whereas IC50 reflects the cytotoxic effect of a drug. To estimate the three parameters, nine absorbance measurements were required including control 24 h (Ct24), control 72 h (Ct72), and the mean of cell survival in all seven drug concentrations (Tt72). The percentage growth inhibition was calculated according to National Cancer Institute’s (NCI) protocol: [(Tt72x) − (Ct24)/(Ct72) − (Ct24)] × 100 for concentrations for which Tt72x > Ct24 and [(Tt72x) − (Ct24)/Ct24] × 100 for concentrations for which Tt72x < Ct24. GI50 was calculated from [(Tt72x) − (Ct24)/(Ct72) − (Ct24)] × 100 = 50, TGI was calculated from [(Tt72x) − (Ct24)/(Ct72) − (Ct24)] × 100 = 0, and IC50 was calculated from [(Tt72x) − (Ct24)/Ct24] × 100 = 50. All the experiments were carried out in triplicate.

The next assay has as its system HT-29. The assay can be described thus: MTT in vitro antiproliferative assay, HT-29. The class given is cell-based, human. The settings on record: for TGI: HT-29, MTT, 48 h drug exposure; for GI50 / IC50: Homo sapiens, HT-29, 48 h.
From the text: as §1, §2, §3, §4

The test system of another assay is DU-145. The assay can be described thus: MTT in vitro antiproliferative assay, DU-145. It counts as cell-based, human. The settings on record: for TGI: DU-145, MTT, 48 h drug exposure; for GI50 / IC50: Homo sapiens, DU-145, 48 h.
From the text: as §1, §2, §3, §4

A further assay concerns PC-3. Description: MTT in vitro antiproliferative assay, PC-3. It counts as cell-based. Conditions: Homo sapiens, PC-3, 48 h; for IC (TGI): read-out: TGI.
From the text: as §1, §2, §3, §4

Another assay concerns SKOV-3. The assay can be described thus: MTT in vitro antiproliferative assay, SKOV-3. It counts as cell-based. The settings on record: Homo sapiens, SK-OV-3, 48 h; for IC (TGI): read-out: TGI.
From the text: as §1, §2, §3, §4

Regarding `CCN(CC)S(=O)(=O)c1cc(OC)c(OC)cc1Cc1nnc2sc(-c3cc([N+](=O)[O-])ccc3[N+](=O)[O-])nn12` [Compound 6e, 2-((6-(2,5-dinitrophenyl)-[1,2,4]triazolo[3,4-b][1,3,4]thiadiazol-3-yl)methyl)-N,N-diethyl-4,5-dimethoxybenzenesulfonamide], the TGI with DLD-1 is 37 ± 2.0 μΜ; in the assay on HT-29 it was 29 ± 0.5 μΜ; in the assay with DU-145, 18.3 ± 0.2 μΜ. Moreover, the IC50 (in general, the concentration needed to halve the response being measured) with DLD-1 stood at 53.6 ± 1.05 µM; in the assay with HT-29 it was 44 ± 1 µM; in the assay on DU-145, 28 ± 0.2 µM; in the assay with PC-3, 26.5 ± 0.9 µM; in the assay with SKOV-3, 38 ± 1.8 µM. For the same molecule, the GI50 (usually the concentration that inhibits growth by half) is 25 ± 2 µM in the assay with DLD-1; 18 ± 1 µM with HT-29; 13 ± 0.5 µM in the assay on DU-145; 11 ± 1 µM with PC-3; 18 ± 0.7 µM with SKOV-3. Also, the figures for the IC (TGI) in the assay with PC-3 and in the assay on SKOV-3 were 17 ± 1 µM and 24 ± 1.2 µM, respectively.

Turning to `COc1cc(Cc2nnc3sc(-c4cc([N+](=O)[O-])ccc4[N+](=O)[O-])nn23)c(S(=O)(=O)N(C(C)C)C(C)C)cc1OC` [Compound 7d, 2-((6-(2,5-dinitrophenyl)-[1,2,4]triazolo[3,4-b][1,3,4]thiadiazol-3-yl)methyl)-N,N-diisopropyl-4,5-dimethoxybenzenesulfonamide], the TGI in the assay with DLD-1 is given as 12 ± 0.5 μΜ; in the assay on HT-29, 26 ± 1.52 μΜ; in the assay on DU-145 it was 14 ± 0.5 μΜ. Further, the IC50 is 22 ± 1 µM in the assay with DLD-1; 40 ± 1 µM in the assay on HT-29; 21.3 ± 0.9 µM with DU-145; 22 ± 0.3 µM in the assay with PC-3; 23 ± 1.4 µM with SKOV-3. For the same molecule, the GI50 is 7.3 ± 0.75 µM with DLD-1; 17.9 ± 2.51 µM in the assay with HT-29; 6.8 ± 0.8 µM in the assay on DU-145; 8 ± 1 µM with PC-3; 13 ± 0.5 µM with SKOV-3. The IC (TGI) with PC-3 was determined as 11 ± 1.04 µM; with SKOV-3, 17 ± 1 µM.

The values above are taken from article PMC8066331, “Anticancer Activity of Triazolo-Thiadiazole Derivatives and Inhibition of AKT1 and AKT2 Activation” (Pharmaceutics, 2021).
